Source: US4950659A, “16,17-acetalsubstituted androstane-17β-carboxylic acid esters prossessing high binding affinity to the glucocorticosteroid receptor” (Aktiebolaget Draco, priority 1985, dated 1990)

molecular target: T1, glucocorticoid receptor (Rattus norvegicus, UniProt P06536); assay: Relative binding affinity to the glucocorticoid receptor: competition with 3H-labelled dexamethasone in rat thymus 20,000×g supernatant; conditions: curves compared at the 50% specific binding level of [3H]dexamethasone, referenced to budesonide, assigned RBA = 1, about 24 h at 0° C.
T1 construct: The thymus was removed and put into ice-cold saline; from tissue; host or cells: thymus of male Sprague-Dawley rats, 20,000×g supernatant of homogenate
T1 sequence (P06536 1-795): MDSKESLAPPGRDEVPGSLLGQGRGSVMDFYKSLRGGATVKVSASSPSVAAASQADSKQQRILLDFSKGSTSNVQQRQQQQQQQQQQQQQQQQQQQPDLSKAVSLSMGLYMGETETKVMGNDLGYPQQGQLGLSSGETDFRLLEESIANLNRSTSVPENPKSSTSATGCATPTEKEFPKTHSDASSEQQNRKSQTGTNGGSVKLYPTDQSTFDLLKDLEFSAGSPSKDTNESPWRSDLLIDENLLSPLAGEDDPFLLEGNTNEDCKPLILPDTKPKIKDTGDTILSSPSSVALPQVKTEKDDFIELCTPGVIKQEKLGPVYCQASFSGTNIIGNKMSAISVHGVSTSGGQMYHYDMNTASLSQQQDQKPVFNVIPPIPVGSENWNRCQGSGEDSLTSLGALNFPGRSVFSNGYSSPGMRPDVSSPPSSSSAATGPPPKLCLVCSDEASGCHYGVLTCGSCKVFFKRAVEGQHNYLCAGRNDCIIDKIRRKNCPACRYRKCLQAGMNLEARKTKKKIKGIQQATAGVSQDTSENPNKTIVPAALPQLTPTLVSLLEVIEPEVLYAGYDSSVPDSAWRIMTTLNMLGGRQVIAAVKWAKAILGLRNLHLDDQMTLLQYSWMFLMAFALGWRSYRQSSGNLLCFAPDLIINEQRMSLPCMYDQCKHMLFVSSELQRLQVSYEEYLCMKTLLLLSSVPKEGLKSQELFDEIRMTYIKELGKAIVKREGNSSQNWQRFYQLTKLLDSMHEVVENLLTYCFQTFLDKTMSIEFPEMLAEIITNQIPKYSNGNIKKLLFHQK
Experimental: All steroids according to the present invention are physiologically active compounds. The affinity of the novel androstane-17β-carboxylic acid esters to the glucocorticoid receptor has been used as a model for determination of the anti-inflammatory potency.
Male Sprague-Dawley rats, one to two months of age, were used throughout the investigation. The thymus was removed and put into ice-cold saline. The tissue was homogenized in a Potter Elvehjem homogenizer in 10 ml of a buffer containing 20 mM Tris, pH 7.4, 10% (w/v) glycerol, 1 mM EDTA, 20 mM NaMoO4, 10 mM mercaptoethanol. The homogenate was centrifuged for 15 min at 20,000×g. Portions of the 20,000×g supernatant (230 μl) were incubated for about 24 h at 0° C. with 100 μl phenylmethylsulphonylfluoride (an esterase inhibitor, final conc. 0.5 mM). 20 μl unlabelled competitor and 50 μl ^3 H-labelled dexamethasone (final conc. […]). Bound and free steroid were separated by incubating the mixture with 60 μl 2.5% (w/v) charcoal and 0.25% (w/v) dextran T70 suspension in 20 mM Tris, pH 7.4, 1 mM EDTA, and 20 mM NaMoO4 for 10 min at 0° C. Following a centrifugation at 500×g for 10 min, 230 μl or the supernatant was counted in 10 ml Insta-Gel in a Packard scintillation spectrophotometer. The supernatants were incubated with (a) [^3 H]dexamethasone alone, (b) [^3 H]dexamethasone plus 1000 fold excess of unlabelled dexamethasone and (c) [^3 H]dexamethasone plus 0.03-300 fold "excess" of competitor. The nonspecific binding was determined when 1000 fold excess of unlabelled dexamethasone was added to [^3 H]-labelled dexamethasone.
The radioactivity bound to the receptor in the presence of competitor divided by the radioactivity bound to the receptor in the absence of competitor multiplied by 100 gives the percentage specific binding of labelled dexamethasone. For each concentration of a competitor the percentage specifically bound radioactivity is plotted against the log of concentration of competitor. The curves are compared at the 50% specific binding level and referenced to budesonide, which is assigned a relative binding affinity (RBA) of 1.

Compared with `CCOC(=O)OC(C)OC(=O)C12OC(C)(C)OC1CC1C3CC(F)C4=CC(=O)C=CC4(C)C3(F)C(O)CC12C` (single isomer, unassigned) [Example 4 epimer B, 1'-Ethoxycarbonyloxyethyl 6α,9α-difluoro-11β-hydroxy-16α,17α-[(1-methylethylidene)bis(oxy)]androsta-1,4-diene-3-one-17β-carboxylate], `CC(=O)OC(C)OC(=O)C12OC(C)(C)OC1CC1C3CC(F)C4=CC(=O)C=CC4(C)C3(F)C(O)CC12C` (single isomer, unassigned) [Example 5 epimer B, 1'-Acetoxyethyl 6α,9α-difluoro-11β-hydroxy-16α,17α-[(1-methylethylidene)bis(oxy)]androsta-1,4-diene-3-one-17β-carboxylate] is lower in “relative binding affinities (RBA) to the glucocorticoid receptor” value (shortened to “relative binding affinities (RBA)”): 0.30 for the first, 0.17 for the second.

Compared with `CC(C)OC(=O)OC(C)OC(=O)C12OC(C)(C)OC1CC1C3CC(F)C4=CC(=O)C=CC4(C)C3(F)C(O)CC12C` (single isomer, unassigned) [Example 27, 1'-isopropoxycarbonyloxyethyl 6α,9α-difluoro-11β-hydroxy-16α,17α-[(1-methylethylidene)bis(oxy)]androsta-1,4-diene-3-one-17β-carboxylate], `CCC[C@@H]1O[C@@H]2C[C@H]3[C@@H]4C[C@H](F)C5=CC(=O)C=C[C@]5(C)[C@@]4(F)[C@@H](O)C[C@]3(C)[C@]2(C(=O)OC(C)OC(=O)OC(C)C)O1` (single isomer, unassigned) [Example 87] is higher in “relative binding affinities (RBA)” value: 0.50 for the first, 0.63 for the second.

Going from `CCC[C@@H]1O[C@@H]2C[C@H]3[C@@H]4CCC5=CC(=O)C=C[C@]5(C)[C@@]4(F)[C@@H](O)C[C@]3(C)[C@]2(C(=O)OC(C)OC(C)=O)O1` (single isomer, unassigned) [Example 55] to `CCC[C@@H]1O[C@@H]2C[C@H]3[C@@H]4CCC5=CC(=O)C=C[C@]5(C)[C@@]4(F)[C@@H](O)C[C@]3(C)[C@]2(C(=O)OC(C)OC(=O)OCC)O1` (single isomer, unassigned) [Example 69], the “relative binding affinities (RBA)” value rises from 0.20 to 0.44.

Compared with `CCC[C@@H]1O[C@@H]2C[C@H]3[C@@H]4C[C@H](F)C5=CC(=O)C=C[C@]5(C)[C@@]4(F)[C@@H](O)C[C@]3(C)[C@]2(C(=O)OC(C)OC(=O)OCC)O1` (single isomer, unassigned) [Example 84], `CCC[C@@H]1O[C@@H]2C[C@H]3[C@@H]4C[C@H](F)C5=CC(=O)C=C[C@]5(C)[C@@]4(F)[C@@H](O)C[C@]3(C)[C@]2(C(=O)OCOC(=O)OCC)O1` [Example 64] is lower in “relative binding affinities (RBA)” value: 1.03 for the first, 0.05 for the second.

`CCOC(=O)OC(C)(C)OC(=O)C12OC(C)(C)OC1CC1C3CC(F)C4=CC(=O)C=CC4(C)C3(F)C(O)CC12C` (stereo not shown) [Example 38] and `CCC[C@@H]1O[C@@H]2C[C@H]3[C@@H]4CCC5=CC(=O)C=C[C@]5(C)[C@H]4[C@@H](O)C[C@]3(C)[C@]2(C(=O)OC(C)OC(=O)OCC)O1` (stereo partly shown) [Example 67] are the same in “relative binding affinities (RBA)” value: 0.04 for the first, 0.04 for the second.
